Values quoted from earlier work in US6528086B2, “Methods and apparatus for drug delivery involving phase changing formulations” (Zars, Inc., priority 1999, dated 2003).

System: tissues
Conditions: in vivo

SMILES: CCCCNc1ccc(C(=O)OCCN(C)C)cc1 [Tetracaine]
- duration of anesthetic effect compared with lidocaine: longer lasting anesthetic effect on tissues than lidocaine
